Read-outs that look alike come from different tables or passages of the source.
Key:
Type in all cases: cell-based
[1] = biological target: T1, human TLR9 (Homo sapiens, UniProt Q9NR96); assay: HEK-Blue hTLR9 assay (SEAP reporter) with agonist ODN 2006; details: HEK-Blue hTLR9 cells, ~3×EC50 ODN 2006, 18 h, exact values 8-point dilutions, approximate (~ or <) 4-point dilutions, read-out: ~IC50 (μM) with ODN2006
T1 construct: host or cells: HEK-Blue hTLR9 (HEK-293)
T1 sequence (Q9NR96 26-1032): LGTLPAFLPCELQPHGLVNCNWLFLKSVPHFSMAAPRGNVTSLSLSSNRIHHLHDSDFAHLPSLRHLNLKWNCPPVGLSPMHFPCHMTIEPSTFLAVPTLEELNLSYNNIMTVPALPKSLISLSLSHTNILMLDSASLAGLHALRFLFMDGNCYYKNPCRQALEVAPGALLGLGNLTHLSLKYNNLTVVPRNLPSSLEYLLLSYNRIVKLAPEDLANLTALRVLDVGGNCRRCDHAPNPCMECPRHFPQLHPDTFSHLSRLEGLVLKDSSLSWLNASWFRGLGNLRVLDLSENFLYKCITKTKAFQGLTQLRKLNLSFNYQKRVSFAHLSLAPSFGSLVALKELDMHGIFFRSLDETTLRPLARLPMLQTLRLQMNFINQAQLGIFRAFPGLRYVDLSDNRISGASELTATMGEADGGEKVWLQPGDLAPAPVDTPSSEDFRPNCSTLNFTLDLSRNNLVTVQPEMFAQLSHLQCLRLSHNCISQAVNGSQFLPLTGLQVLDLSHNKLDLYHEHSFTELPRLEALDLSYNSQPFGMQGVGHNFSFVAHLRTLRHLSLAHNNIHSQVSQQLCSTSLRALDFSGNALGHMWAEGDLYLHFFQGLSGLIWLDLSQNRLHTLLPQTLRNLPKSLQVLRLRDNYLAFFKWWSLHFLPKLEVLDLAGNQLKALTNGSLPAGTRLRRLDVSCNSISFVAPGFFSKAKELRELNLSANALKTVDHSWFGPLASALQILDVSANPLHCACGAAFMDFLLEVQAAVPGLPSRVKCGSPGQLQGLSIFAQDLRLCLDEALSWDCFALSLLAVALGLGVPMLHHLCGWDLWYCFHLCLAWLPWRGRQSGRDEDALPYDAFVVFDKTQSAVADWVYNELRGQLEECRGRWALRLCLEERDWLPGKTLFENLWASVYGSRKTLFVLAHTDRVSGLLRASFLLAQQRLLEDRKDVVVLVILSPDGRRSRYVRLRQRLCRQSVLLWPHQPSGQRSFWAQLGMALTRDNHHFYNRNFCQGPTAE
Method: Synthetic ODNs (ODN 2006 (ODN7909), class B CpG oligonucleotide, TLR9 agonist) was obtained from InvivoGen and was dissolved in endotoxin-free water to a concentration 500 μM, vortexed until complete solubilization, and stored in aliquots at −20° C. Prior to addition to cells, an aliquot of the dissolved ligand was vortexed shortly and then was diluted in medium to 50 μM. The EC50 of the agonist for each assay run was determined by using 3-fold dilutions from the starting concentration 10 μM.
Test compounds were solubilized fresh to 10-20 mM stocks in DMSO and sonicated for 5-10 minutes in a water bath sonicator. Serial dilutions were prepared in DMSO, and then diluted in medium. The final concentration of DMSO used in the assay was 1%.
HEK-Blue hTLR9 reporter cells (InvivoGen) are HEK-293 cells stably expressing both the human TLR9 gene and a secreted embryonic alkaline phosphatase (SEAP) reporter construct downstream of NFκB promotor sites. HEK-Blue hTLR9 cells were cultured according to manufacturer's protocol using Dulbecco's Modified Eagle Medium (DMEM; Gibco) containing 1× GlutaMax (Gibco), 10% heat-inactivated Fetal Bovine Serum (Gibco), Pen-Strep (50 U/mL penicillin, 50 μg/mL streptomycin, Gibco), 100 μg/mL Normocin (InvivoGen), and the selective antibiotics, 10 μg/mL Blasticidin (InvivoGen), and 100 μg/mL Zeocin (InvivoGen). Quanti-Blue reagent (InvivoGen) for detection and quantification of secreted alkaline phosphatase was dissolved in 100 mL of endotoxin-free water, warmed to 37° C. for 30 minutes and then filtered using a 0.2 μm membrane.
On day 1, 50 μL of each test compound dilution in duplicates or a vehicle control was added to each well of a 96-well plate followed by addition of 150 μL of HEK-Blue hTLR9 cell suspension (1×10^5 cells/well) and incubated at 37° C./5% CO2 for 2 h. Next, 50 μL of an approximate 3×EC50 concentration of TLR9 agonist, ODN 2006, was added to the wells containing test compounds or the vehicle control. The plates were then incubated at 37° C./5% CO2 for 18 h. For each assay run, vehicle-treated HEK-Blue hTLR9 cells were treated with serial dilutions of agonist to determine EC50 values for the respective run.
On day 2, secreted alkaline phosphatase (SEAP) activity was detected in cell culture supernatants. In brief, 30 μL was collected from each well and transferred to a 96-well plate. Next, 200 μL of Quanti-Blue detection reagent was added to each well. Plates were incubated at 37° C. for 60 min. and SEAP activity was assessed by spectrophotometer OD reading at 655 nm. Table A and Table B show the activities of the compounds tested in HEK-Blue hTLR9 cells against ODN 2006. The activities of the compounds against ODN 2006 are presented as IC50 values which were defined as concentrations of the compounds where percent inhibition of the signal induced by agonist is equal to 50. Exact IC50 values were calculated based on 8-point dilutions for each compound. Approximate IC50 values (˜ or <) were calculated based on 4-point dilutions for each compound.

[2] = biological target: T2, human TLR2 (Homo sapiens, UniProt O60603); assay: HEK-Blue hTLR2 antagonism assay (SEAP reporter) with agonist Pam3CSK4 (TLR1/2 agonist); details: HEK-Blue hTLR2 cells, ~3×EC50 Pam3CSK4, 18 h, SEAP OD 655 nm, 8-point dilutions
T2 construct: host or cells: HEK-Blue hTLR2 (HEK-293)

[3] = biological target: T2, human TLR2; assay: HEK-Blue hTLR2 antagonism assay (SEAP reporter) with agonist Pam2CSK4 (TLR2/6 agonist); details: HEK-Blue hTLR2 cells, ~3×EC50 Pam2CSK4, 18 h, SEAP OD 655 nm, 8-point dilutions

T2 sequence (O60603 21-784): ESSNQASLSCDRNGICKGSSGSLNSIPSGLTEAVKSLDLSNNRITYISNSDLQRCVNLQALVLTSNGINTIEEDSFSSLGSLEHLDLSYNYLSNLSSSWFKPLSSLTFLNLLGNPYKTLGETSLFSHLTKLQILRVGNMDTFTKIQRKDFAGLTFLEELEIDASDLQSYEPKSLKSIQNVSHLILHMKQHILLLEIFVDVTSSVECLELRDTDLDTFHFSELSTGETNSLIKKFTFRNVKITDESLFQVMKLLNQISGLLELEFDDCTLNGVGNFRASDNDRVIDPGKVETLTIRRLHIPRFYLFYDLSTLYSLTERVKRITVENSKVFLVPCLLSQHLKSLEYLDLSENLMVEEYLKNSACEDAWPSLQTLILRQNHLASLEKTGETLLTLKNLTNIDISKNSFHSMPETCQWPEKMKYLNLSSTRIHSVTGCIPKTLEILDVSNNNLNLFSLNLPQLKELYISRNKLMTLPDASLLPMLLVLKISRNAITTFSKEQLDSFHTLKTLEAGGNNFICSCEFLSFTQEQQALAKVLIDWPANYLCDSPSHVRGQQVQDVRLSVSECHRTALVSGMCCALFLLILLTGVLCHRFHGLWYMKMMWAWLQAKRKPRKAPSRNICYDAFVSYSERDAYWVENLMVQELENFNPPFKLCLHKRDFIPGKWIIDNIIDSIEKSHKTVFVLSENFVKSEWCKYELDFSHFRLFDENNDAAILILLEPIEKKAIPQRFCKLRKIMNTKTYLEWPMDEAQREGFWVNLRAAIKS

Row | SMILES | IC50 ([1]; Table A) | IC50 ([2]; Table A) | IC50 ([3]; Table A) | IC50 ([1]; Table B) | IC50 ([2]; Table B) | IC50 ([3]; Table B)
1 | COc1cc(-c2cnn(CCN3CCOCC3)c2)cc(C=O)c1O [Compound A2, 2-hydroxy-3-methoxy-5-(1-(2-morpholinoethyl)-1H-pyrazol-4-yl)benzaldehyde] | > 33 µM | > 100 µM | > 100 µM |  |  | 
2 | O=Cc1c(O)cc(C#Cc2ccc(N3CCCC3)cc2)cc1F [Compound B4, 2-fluoro-6-hydroxy-4-((4-(pyrrolidin-1-yl)phenyl)ethynyl)benzaldehyde] |  |  |  | ~1.5 µM | 2.7 µM | 6.3 µM
3 | O=Cc1cc(-c2ccn(-c3ccc(N4CCCC4)cc3)n2)cc(F)c1O [Compound A27, 3-fluoro-2-hydroxy-5-(1-(4-(pyrrolidin-1-yl)phenyl)-1H-pyrazol-3-yl)benzaldehyde] | < 1.2 µM | 0.8 µM | 0.9 µM |  |  | 
4 | O=Cc1cc(C(=O)Nc2ccc(N3CCCC3)cc2)cc(F)c1O [Compound B12, 3-fluoro-5-formyl-4-hydroxy-N-(4-(pyrrolidin-1-yl)phenyl)benzamide] |  |  |  | 0.7 µM | 2 µM | 2.7 µM
5 | O=Cc1cc(-c2csc(-c3ccc(N4CCCC4)cc3)n2)cc(F)c1O [Compound A57, 3-fluoro-2-hydroxy-5-(2-(4-(pyrrolidin-1-yl)phenyl)thiazol-4-yl)benzaldehyde] | 0.3 µM | 0.3 µM | 1 µM |  |  | 
6 | O=Cc1cc(C(=O)Nc2ccc(N3C[C@H]4COC[C@H]4C3)cc2)cc(F)c1O [Compound B75, 3-fluoro-5-formyl-4-hydroxy-N-(4-((3aR,6aS)-tetrahydro-1H-furo[3,4-c]pyrrol-5(3H)-yl)phenyl)benzamide] |  |  |  | ~4.7 µM | 6 µM | 13 µM
7 | COc1cc(-c2cnn(-c3ccccc3)c2)cc(C=O)c1O [Compound A1, 2-hydroxy-3-methoxy-5-(1-phenyl-1H-pyrazol-4-yl)benzaldehyde] | ~2 µM | 0.9 µM | 2.2 µM |  |  | 
8 | O=Cc1cc(-c2nc(-c3ccccc3)cs2)cc(F)c1O [Compound A93, 3-fluoro-2-hydroxy-5-(4-phenylthiazol-2-yl)benzaldehyde] | < 1.2 µM | 2.1 µM | 4.8 µM |  |  | 
9 | O=Cc1cc(NC(=O)Nc2ccc(N3CCCC3)cc2)cc(F)c1O [Compound B65, 1-(3-fluoro-5-formyl-4-hydroxyphenyl)-3-(4-(pyrrolidin-1-yl)phenyl)urea] |  |  |  | < 1.2 µM | 3.7 µM | 8.7 µM
10 | COc1cc(-c2ccn(-c3ccccc3)n2)cc(C=O)c1O [Compound A25, 2-hydroxy-3-methoxy-5-(1-phenyl-1H-pyrazol-3-yl)benzaldehyde] | ~3 µM | 1.2 µM | 1.9 µM |  |  | 
11 | O=Cc1cc(-c2cnc(-c3ccc(N4CCCC4)cc3)s2)cc(F)c1O [Compound A55, 3-fluoro-2-hydroxy-5-(2-(4-(pyrrolidin-1-yl)phenyl)thiazol-5-yl)benzaldehyde] | 0.2 µM | 0.4 µM | 0.6 µM |  |  | 
12 | O=Cc1cc(-n2cc(-c3cccc(N4CCCC4)c3)nn2)cc(F)c1O [Compound A44, 3-fluoro-2-hydroxy-5-(4-(3-(pyrrolidin-1-yl)phenyl)-1H-1,2,3-triazol-1-yl)benzaldehyde] | ~1.2 µM | 0.7 µM | 1 µM |  |  | 
13 | Oc1cc(-c2cnn(-c3ccccc3)c2)cc(F)c1F [Compound A13, 2,3-difluoro-5-(1-phenyl-1H-pyrazol-4-yl)phenol] | > 33 µM | 39.7 µM | 45.7 µM |  |  | 
14 | O=Cc1cc(-c2cnc(-c3ccccc3)o2)cc(F)c1O [Compound A88, 3-fluoro-2-hydroxy-5-(2-phenyloxazol-5-yl)benzaldehyde] | ~3 µM | 1.3 µM | 2.1 µM |  |  | 
15 | O=Cc1cc(S(=O)(=O)Nc2ccc(N3CCCC3)cc2)cc(F)c1O [Compound B17, 3-fluoro-5-formyl-4-hydroxy-N-(4-(pyrrolidin-1-yl)phenyl)benzenesulfonamide] |  |  |  | ~2.9 µM | 6.6 µM | 12.7 µM
